Where “and” joins values, the source holds several entries; their conditions need not be identical. Identical values can stand only once.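 Briefly, cells in 96-well plates were exposed to five compound concentrations for 48 h, and endpoints were estimated by linear interpolation. GI50 is the concentration that inhibits growth by half. TGI marks complete inhibition of growth.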
Key:
Assay in all cases: inhibition of tumour cell growth, NCI panel, 48 h
[1] = system: OVCAR-4 ovarian
[2] = system: SK-OV-3 ovarian
[3] = system: TK-10 renal
[4] = system: SF-295 CNS
[5] = system: NCI/ADR-RES ovarian
[6] = system: K-562 leukemia
[7] = system: 786-0 renal
[8] = system: MDA-MB-435

Row | Structure (SMILES) | GI50 [1] | TGI [1] | GI50 [2] | TGI [2] | GI50 [3] | TGI [3] | GI50 [4] | TGI [4] | GI50 [5] | TGI [5] | GI50 [6] | TGI [6] | GI50 [7] | TGI [7] | GI50 [8] | TGI [8]
1 | O=C1/C(=C/c2ccc(Cl)cc2)CN(Cc2cn(CCCNc3ccnc4cc(Cl)ccc34)nn2)C/C1=C\c1ccc(Cl)cc1 | 0.5 µM | 2.38 µM | 1.84 µM | 3.52 µM | 1.7 µM | 3.15 µM | 0.708 µM | 1.84 µM | 1.65 µM | 6.51 µM | 0.289 µM | 3.79 µM | 0.754 µM | 2.06 µM | 1.3 µM | 2.69 µM
2 | CS(=O)(=O)Nc1cc(-c2ccc3ncc(C#N)c(Nc4ccc(F)c(Cl)c4)c3c2)cnc1Cl | 0.243 µM | – | 0.194 µM | 0.731 µM | 0.166 µM | 0.793 µM | 0.181 µM | 0.82 µM | 0.633 µM | > 100 µM | 0.201 µM | > 100 µM | 0.256 µM | – | 0.22 µM | 1.85 µM
3 | Cc1cc(O)ccc1C1(c2ccc(O)cc2C)OC(=O)c2ccccc21 | 16.4 µM | 30.8 µM | 17.7 µM | 32.8 µM | 17 µM | 30.8 µM | 16.2 µM | 31.7 µM | 21.1 µM | 49.6 µM | 28 µM | > 100 µM | 16.8 µM | 34 µM | 15.6 µM | 29.7 µM
4 | NC(=O)c1c[nH]c2ncnc(N)c12 | 24.1 µM | > 100 µM | 25.9 µM | 83 µM | 19.6 µM | > 100 µM | 31.1 µM | > 100 µM | > 100 µM | > 100 µM | 93.9 µM | > 100 µM | > 100 µM | > 100 µM | 26.6 µM | > 100 µM
5 | CC(C)c1cnc(-c2cc(Cl)ccc2F)cc1Nc1ccncc1C(=O)NC(CO)CO | 13.7 µM | 66.3 µM | 19.8 µM | 55.5 µM | 10.8 µM | 56 µM | 13.1 µM | 26.6 µM | 20.8 µM | 63.2 µM | 12.3 µM | 46.5 µM | 14.1 µM | 37.1 µM | 16.1 µM | 30.4 µM
6 | COc1ccc2[nH]c(C(=O)OCc3ccc4c(Br)cc(Br)c(O)c4n3)cc2c1 | 0.895 µM | 2.25 µM | 3.16 µM | 14.4 µM | 1.39 µM | 2.71 µM | 2.02 µM | 5.33 µM | 1.68 µM | 7.3 µM | 0.495 µM | 4.94 µM | 1.23 µM | 2.61 µM | 0.836 µM | 2.2 µM
7 | COc1ccccc1CNCCCN1C(=O)c2ccc3c4c(ccc(c24)C1=O)C(=O)N(CCCNCCCCNCCCN)C3=O | 0.167 µM | 0.319 µM | 1.95 µM | 11.1 µM | 0.959 µM | 6.28 µM | 1.06 µM | 6.79 µM | 2.02 µM | 7.7 µM | 0.302 µM | 7.05 µM | 1.03 µM | 3.78 µM | 0.213 µM | 0.494 µM
8 | Cn1c2c(c3ccccc31)CCN1C[C@@H]3CCCC[C@H]3C[C@@H]21 | 4.36 µM | > 100 µM | 2.82 µM | 25.6 µM | 3.01 µM | 23.2 µM | 2.25 µM | 6.58 µM | 0.928 µM | 9.7 µM | 2.07 µM | > 36 µM | 3.58 µM | 17.5 µM | 1.56 µM | > 20.6 µM
9 | CN1C(=O)C(N=Nc2ccc([N+](=O)[O-])cc2)SC1=S (configuration not stated) | 6.35 µM and 9.5 µM | > 100 µM | 7.51 µM and 11.2 µM | 74.4 µM and 51.5 µM | 12.6 µM and 5.87 µM | 79.7 µM and > 100 µM | 1.62 µM and 3.04 µM | 6.27 µM and 24.9 µM | 2.62 µM and 4.58 µM | 64.4 µM and 37 µM | 0.625 µM and 2.17 µM | > 100 µM | 8.12 µM and 10.7 µM | 80 µM and 58.2 µM | 3.86 µM and 16.1 µM | 32.3 µM and 77.1 µM
10 | Cc1ccc2ncnc(N(C)C3CCCCC3)c2c1 | 76.5 µM | > 100 µM | 33.2 µM | > 100 µM | 36 µM | > 100 µM | 18.9 µM | 46.9 µM | 19.1 µM | 53 µM | 13.5 µM | 94.4 µM | 32.3 µM | > 100 µM | 23 µM | 68.2 µM
11 | Cn1cc(-c2csc(-c3ccccc3)n2)c2cccnc21 | 23.3 µM | 71.4 µM | 18.7 µM | 43.3 µM | 17.9 µM | 39.1 µM | 15 µM | 33.7 µM | 19.3 µM | 49.6 µM | 13.9 µM | 48.9 µM | 14.4 µM | 28.2 µM | 11.2 µM | 26.5 µM
12 | CC[C@]12C=CCN3CC[C@@]4(c5ccc(OC)cc5N(C)[C@H]4[C@@](O)(C(=O)OC)[C@@H]1OC(=O)CCC(=O)O[C@H]1CC[C@H]4[C@@H]5CCC6=CC(=O)CC[C@@H]6[C@H]5CC[C@]14C)[C@@H]32 | 1.79 µM | > 50 µM | 2.04 µM | > 50 µM | 1.91 µM | > 50 µM | 1.69 µM | > 50 µM | 1.69 µM | > 50 µM | 1.82 µM | > 50 µM | 1.99 µM | > 50 µM | 1.93 µM | > 50 µM
13 | Cc1c(O)cccc1C(=O)N[C@@H](CSc1ccccc1)[C@H](O)CN1C[C@H]2CCCC[C@H]2C[C@H]1C(=O)NC(C)(C)C | 5.97 µM and 5.96 µM | > 37.6 µM and 23.4 µM | 4.29 µM and 9.5 µM | 23.9 µM and > 59.7 µM | 4.26 µM and 5.89 µM | 23.6 µM and 24.5 µM | 2.53 µM and 3.49 µM | 6.97 µM and 25.5 µM | 4.87 µM and 6.17 µM | 32.1 µM and 27.1 µM | 3.35 µM and 10.3 µM | > 100 µM and 31.3 µM | 3.8 µM and 5.87 µM | 16.4 µM and 16 µM | 3.46 µM and 4.9 µM | 12.8 µM and 38.4 µM
14 | O=C1NC(c2ccc3ccccc3c2)Nc2ccccc21 (configuration not stated) | – | > 100 µM | – | > 100 µM | – | > 100 µM | – | > 100 µM | – | > 100 µM | – | 7.04 µM | – | > 100 µM | – | 50.7 µM
15 | COc1ccc(C2=C(c3ccccc3)C(=O)N3CCCC3C2)cc1 (configuration not stated) | 55.2 µM | > 100 µM | > 100 µM | > 100 µM | 12.9 µM | > 100 µM | 2.11 µM | > 100 µM | 8.85 µM | > 100 µM | 0.0893 µM | > 100 µM | 1.13 µM | > 100 µM | 5.32 µM | > 100 µM
16 | O=C(O)c1ccc(CSc2nc3ccccc3[nH]2)cc1 | > 100 µM | > 100 µM | > 100 µM | > 100 µM | > 100 µM | > 100 µM | > 100 µM | > 100 µM | > 100 µM | > 100 µM | > 100 µM | > 100 µM | > 100 µM | > 100 µM | > 100 µM | > 100 µM
17 | CC(=O)Oc1ccc(C2OC(c3ccc4ccccc4c3OC(C)=O)=NN2C(C)=O)c(OC(C)=O)c1 (configuration not stated) | 0.291 µM | > 75.9 µM | 0.675 µM | > 52.3 µM | 0.774 µM | > 53.8 µM | 0.295 µM | 14.8 µM | 0.394 µM | > 74.1 µM | 0.402 µM | > 48.6 µM | 0.479 µM | > 77.2 µM | 0.638 µM | > 65 µM
18 | CO/N=C(/C)COc1ccc2c(c1)oc(=O)c1cc(OC)ccc12 | 47.1 µM | > 100 µM | > 100 µM | > 100 µM | > 100 µM | > 100 µM | 82.4 µM | > 100 µM | > 100 µM | > 100 µM | > 100 µM | > 100 µM | > 100 µM | > 100 µM | > 100 µM | > 100 µM
19 | CCN1CCN(Cc2ccc(Nc3ncc(F)c(-c4cc(F)c5nc(C)n(C(C)C)c5c4)n3)nc2)CC1 | 6.49 µM | 16.2 µM | 3.22 µM | 11.7 µM | 0.029 µM | 8.63 µM | 0.0882 µM | 9.08 µM | 10.4 µM | 26.2 µM | 5.85 µM | 21 µM | 4.74 µM | 13.2 µM | 0.191 µM | 10.7 µM
20 | Nc1c(C(=O)Nc2cccc(Cl)c2)sc2nc3c(cc12)C(O)CCC3 (configuration not stated) | 5.51 µM | 40.2 µM | 0.534 µM | 22.2 µM | 10.8 µM | 36.8 µM | 0.314 µM | 16.3 µM | 0.583 µM | > 100 µM | 0.207 µM | 22.9 µM | 0.66 µM | 20.4 µM | 0.121 µM | 0.408 µM
21 | CC(C)n1cc(-c2ccc3c(c2)N(C)CC3)c2c(NS(=O)(=O)c3ccn(C)n3)ccnc21 | 52.5 µM | > 100 µM | > 100 µM | > 100 µM | > 100 µM | > 100 µM | 27.4 µM | > 100 µM | 49.5 µM | > 100 µM | 79.9 µM | > 100 µM | 43.7 µM | > 100 µM | 83 µM | > 100 µM
22 | O=C(/C=C(/C=C/c1cccc2[nH]ccc12)OB(F)F)/C=C/c1cccc2[nH]ccc12 | 0.554 µM | 24.7 µM | 2.19 µM | 5.77 µM | 1.93 µM | 7.42 µM | 1.76 µM | 4.61 µM | 0.399 µM | > 100 µM | 0.423 µM | > 100 µM | 0.477 µM | 5.03 µM | 0.475 µM | 2.55 µM

— PubChem BioAssay (NCI)
